Measurements: paper PMC6680430, “Quantitative Prediction of Human Pharmacokinetics and Pharmacodynamics of CKD519, a Potent Inhibitor of Cholesteryl Ester Transfer Protein (CETP)” (Pharmaceutics, 2019)
Values after ≈ are worked out from the molar mass of the structure shown.

Assays:
[1] = animal full PK study in hamsters (NCA and PK model); type: in vivo; settings: hamster; for Tmax: median (range)
Description: (§1) Animal PK data for analysis were collected from preclinical studies performed at ChongKunDang laboratory. All animal experiments were performed with relevant guidelines and regulations, and the protocol was approved by the Institutional Animal Care and Use Committee (IACUC) of ChongKunDang (Approval number: S-13-015). A single dose of CKD519 was administered either orally or via intravenous infusion to hamsters (intravenous dose of 0.5 mg/kg, oral dose of 3, 15, or 45 mg/kg, n = 30); rats (intravenous dose of 0.5 mg/kg, oral dose of 5, 15, or 45 mg/kg, n = 20); and monkeys (intravenous dose of 0.1 mg/kg, oral dose of 1, 5, or 30 mg/kg, n = 16). The identical solution was administered to all animal species in the fasted state. Plasma CKD519 concentration was measured before and at 0.083, 0.25, 0.5, 1, 2, 4, 8, and 24 h after administration in hamsters and rats, and before and at 0.083, 0.25, 0.5, 1, 2, 4, 6, 8, 12, 24, 48, and 72 h after administration in monkeys. Two hamsters given identical doses were sampled in a rotating manner.
(§2) The plasma samples were stored at −70 °C before the analysis and were thawed at room temperature. […] A sensitive, specific, and validated liquid chromatography coupled with a tandem mass spectrometer (HPLC-MS/MS) assay was used for the determination of CKD519 concentration in animal plasma samples. A structural analogue of CKD519 was used as the internal standard. The validated working range was from 2 ng/mL (the lower limit of quantification, LLOQ) to 20,000 ng/mL. Quality control (QC) samples were analyzed together with the study samples. Intra-day and inter-day precision and accuracy results were within the acceptance criteria based on the Ministry of Food and Drug Safety (MFDS) guidelines. An exploratory data analysis was performed through non-compartmental analysis (NCA) using the NonCompart package (developed by Bae, version 0.4.4) in R (version 3.5.1, The R Foundation, Vienna, Austria).
(§3) Using the PK data from each species, nonlinear mixed-effect modeling was conducted using NONMEM (version 7.4, Icon Development Solutions, Ellicott City, MD, USA) reflecting the clues from NCA. The first-order conditional estimation method with interaction (FOCE-I) was used whenever applicable. The adequacy of the model was checked using changes in the objective function value (OFV), visual inspection of various diagnostic plots (goodness-of-fit (GOF) plot), and methods of visual predictive check (VPC) and bootstrap were used for the diagnostics on the model stability and parameter reliability. The significance of model improvement was evaluated using a likelihood-ratio test (LRT). In the nested models, the result was considered statistically significant if the OFV decreased more than 3.84 (p-value < 0.05, degree of freedom (df) = 1) and 5.99 (p-value < 0.05, df = 2). The degree of freedom is defined as the gap of the numbers of parameters of the two subsequent models that are being compared. In the case of non-nested models, the Akaike information criteria (AIC) value was used to select the model that best described the data. R (version 3.5.1., R Foundation for Statistical Computing, Vienna, Austria) was used for data preparation, NCA, graphical analysis, model diagnostics, and statistical summaries.
(§4) Initially, a two-compartment model with first-order absorption was developed to describe the biphasic curve, and several absorption structures (e.g., zero-order with absorption lag time, Weibull-type absorption) were applied to the base model if needed. The change in absolute bioavailability (F) by dose levels was also considered. […]

[2] = animal full PK study in rats (NCA and PK model); type: in vivo; settings: rat; for Tmax: median (range)
Description: as §1, §2, §3, §4

[3] = tested on: CETP; experiment: human PK/PD modeling and simulation of CETP inhibition
[4] = preclinical in vitro and in vivo efficacy studies (off-target effects)
[5] = PK model, final estimate (%RSE)
[6] = intravenous 0.5 mg/kg, NCA, mean ± SD
[7] = two-compartment PK model, final estimate (%RSE)

For `COc1cc(F)c(C(C)C)cc1C1=C(CN2C(=O)O[C@H](c3cc(C(F)(F)F)cc(C(F)(F)F)c3)[C@@H]2C)CC(C)(C)CC1` [CKD519], the “α (scale parameter of Weibull absorption)” value [1, 5] was 4.20 (4.14%), the “β (shape parameter of Weibull absorption)” value [1, 5] was 2.62 (4.47%) and the AUClast [1, 6] was 8760 ± 635 ng·h/mL. For the same compound, the “V/F * (V for intravenous)” value [1, 6] was 138 ± 89.9 mL, the ke [1, 6] was 0.0616 ± 0.0446 h⁻¹ and the t1/2 [1, 6] was 16.9 ± 14.1 h. The Tmax ([1]; intravenous 0.5 mg/kg, NCA) was 0.083 (0.083–0.083) h, the AUClast ([1]; oral 3 mg/kg, NCA, mean ± SD) was 6140 ± 471 ng·h/mL and the CL/F ([1]; oral 3 mg/kg, NCA, mean ± SD) was 34.7 ± 3.08 mL/h. It also gave a Cmax ([1]; oral 3 mg/kg, NCA, mean ± SD) of 659 ± 89.3 ng/mL, a V/F ([1]; oral 3 mg/kg, NCA, mean ± SD) of 1570 ± 163 mL and a ke ([1]; oral 3 mg/kg, NCA, mean ± SD) of 0.0223 ± 0.00294 h⁻¹. The t1/2 ([1]; oral 3 mg/kg, NCA, mean ± SD) was 31.5 ± 4.41 h, the Tmax ([1]; oral 3 mg/kg, NCA) was 3.5 (3–4) h and the AUClast ([1]; oral 15 mg/kg, NCA, mean ± SD) was 18800 ± 4310 ng·h/mL. The CL/F ([1]; oral 15 mg/kg, NCA, mean ± SD) was 66.6 ± 20.1 mL/h, the Cmax ([1]; oral 15 mg/kg, NCA, mean ± SD) was 3250 ± 465 ng/mL and the V/F ([1]; oral 15 mg/kg, NCA, mean ± SD) was 2460 ± 162 mL. The ke ([1]; oral 15 mg/kg, NCA, mean ± SD) was 0.0268 ± 0.00613 h⁻¹, the t1/2 ([1]; oral 15 mg/kg, NCA, mean ± SD) was 26.8 ± 5.23 h and the Tmax ([1]; oral 15 mg/kg, NCA) was 4 (3–4) h. For the same compound, the AUClast ([1]; oral 45 mg/kg, NCA, mean ± SD) was 26700 ± 2330 ng·h/mL, the CL/F ([1]; oral 45 mg/kg, NCA, mean ± SD) was 145 ± 9.52 mL/h and the Cmax ([1]; oral 45 mg/kg, NCA, mean ± SD) was 3160 ± 614 ng/mL. The V/F ([1]; oral 45 mg/kg, NCA, mean ± SD) was 4330 ± 572 mL, the ke ([1]; oral 45 mg/kg, NCA, mean ± SD) was 0.0338 ± 0.00311 h⁻¹ and the t1/2 ([1]; oral 45 mg/kg, NCA, mean ± SD) was 20.7 ± 1.76 h. For the same compound, the Tmax ([1]; oral 45 mg/kg, NCA) was 4 (3–6) h, the CL [1, 7] was 0.00377 (7.40%) L/h and the Q [1, 7] was 0.00617 (10.3%) L/h. For the same compound, the Vc [1, 7] was 0.00472 (9.43%) L, the Vp [1, 7] was 0.0924 (9.78%) L and the “α (scale parameter of Weibull absorption)” value [2, 5] was 3.86 (3.94%). For the same compound, the “β (shape parameter of Weibull absorption)” value [2, 5] was 2.59 (4.59%), the AUClast [2, 6] was 3940 ± 585 ng·h/mL and the “V/F * (V for intravenous)” value [2, 6] was 494 ± 126 mL. The ke [2, 6] was 0.0677 ± 0.0214 h⁻¹, the t1/2 [2, 6] was 12.0 ± 2.98 h and the Tmax ([2]; intravenous 0.5 mg/kg, NCA) was 0.083 (0.083–0.083) h. It also gave an AUClast ([2]; oral 5 mg/kg, NCA, mean ± SD) of 6640 ± 932 ng·h/mL, a CL/F ([2]; oral 5 mg/kg, NCA, mean ± SD) of 188 ± 28.6 mL/h and a Cmax ([2]; oral 5 mg/kg, NCA, mean ± SD) of 893 ± 231 ng/mL. The V/F ([2]; oral 5 mg/kg, NCA, mean ± SD) was 2860 ± 1930 mL, the ke ([2]; oral 5 mg/kg, NCA, mean ± SD) was 0.0784 ± 0.0245 h⁻¹ and the t1/2 ([2]; oral 5 mg/kg, NCA, mean ± SD) was 10.0 ± 4.78 h. The Tmax ([2]; oral 5 mg/kg, NCA) was 3 (3–4) h, the AUClast ([2]; oral 15 mg/kg, NCA, mean ± SD) was 11600 ± 3240 ng·h/mL and the CL/F ([2]; oral 15 mg/kg, NCA, mean ± SD) was 323 ± 82.8 mL/h. It also gave a Cmax ([2]; oral 15 mg/kg, NCA, mean ± SD) of 2040 ± 448 ng/mL, a V/F ([2]; oral 15 mg/kg, NCA, mean ± SD) of 4770 ± 1740 mL and a ke ([2]; oral 15 mg/kg, NCA, mean ± SD) of 0.0701 ± 0.0107 h⁻¹. The t1/2 ([2]; oral 15 mg/kg, NCA, mean ± SD) was 10.1 ± 1.82 h, the Tmax ([2]; oral 15 mg/kg, NCA) was 2 (2–4) h and the AUClast ([2]; oral 45 mg/kg, NCA, mean ± SD) was 12700 ± 1900 ng·h/mL. The CL/F ([2]; oral 45 mg/kg, NCA, mean ± SD) was 887 ± 140 mL/h, the V/F ([2]; oral 45 mg/kg, NCA, mean ± SD) was 10100 ± 1380 mL and the ke ([2]; oral 45 mg/kg, NCA, mean ± SD) was 0.0876 ± 0.00791 h⁻¹. For the same compound, the t1/2 ([2]; oral 45 mg/kg, NCA, mean ± SD) was 7.97 ± 0.782 h, the Tmax ([2]; oral 45 mg/kg, NCA) was 3 (2–5) h and the CL [2, 7] was 0.0326 (5.58%) L/h. The Q [2, 7] was 0.0404 (12.0%) L/h, the Vc [2, 7] was 0.0287 (6.41%) L and the Vp [2, 7] was 0.285 (8.21%) L. The IC50 ([3]; comparator in vivo IC50 22 nM scaled by in vitro potency ratio, read-out: assumed in vivo IC50) was 37 nM, the “IC50 reflected in the PD model” value ([3]; corresponds to 22 nM (reported PD parameter of comparator scenario)) was 0.01322 µg/mL (≈ 0.022 µM) and the “IC50 reflected in the PD model” value ([3]; corresponds to 37 nM (in vitro potency ratio scenario)) was 0.02224 µg/mL. The off-target effects [4] was “no off-target effects”.
